Reference: US20140128336A1, “MEDICAL PRODUCTS FOR USE IN CONDITIONS RELATED TO MICROBIAL INFECTIONS IN THE UPPER AERODIGESTIVE TRACT” (BIOHIT OYJ, priority 2011, published 2014)

Columns and labels:
[1] = tested on: H. pylori strains (NCTC 11637, ATCC 43504); assay: Modified pellicle assay for H. pylori biofilm formation; assay type: cell-based, Helicobacter pylori
From the text: In this example, H. pylori strains (NCTC 11637, National Culture Collection, London, UK, and ATCC 43504, American Type Culture Collection), grown in liquid culture without shaking, were examined to determine their ability to form biofilms in the presence and absence of L-cysteine. The bacteria were screened for biofilm production using modified pellicle assay as previously described by Joshua et al. 2006 (14). The formation of pellicles at the liquid-gas interface of cultures grown without shaking was observed after 3-6 days. All isolates were grown in 13-by 125-mm glass test tubes containing 6 ml of BHI broth supplemented with 2% (w/v) β-cyclodextrin (BCD; Sigma) in the presence and absence of L-cysteine. The bacterial concentration was adjusted equivalently to approximately 0.5 McFarland standard (˜10^8 CFU/ml). The cultures were incubated under microaerobic conditions (N2 85%; O2 5%; CO2 10%) at 35° C. for 7 days without shaking. Development of pellicle and/or attached bacterial cells at interior surface of test tube at the air-liquid interface, representing as biofilm, was examined daily. In the tests using L-cysteine and N-acetyl-cysteine, increasing amounts of L-cysteine or N-acetyl-cysteine were added in increasing concentrations to the culture medium.

H. pylori = assay: Open-label randomized trial, eradication of Helicobacter pylori; assay type: in vivo, human; conditions: patients with at least four eradication failures; 600 mg NAC once a day for seven days before culture-guided antibiotic regimen; standard group 4/20
Protocol: In this open-label randomized trial, 50% of patients with at least four H. pylori eradication failures received before culture-guided antibiotic regimen 600 mg of N-acetylcysteine (NAC) once a day for seven days. In the NAC-pretreatment group H. pylori were successfully eradicated in 13/20 and in standard group only in 4/20 patients (p<01).

[2] = tested on: Cladosporium cladosporioides; conditions: cited from earlier work
C. cladosporioides = conditions: block containing cysteine; cited from earlier work

Row | SMILES | inhibition of H. pylori biofilm formation ([1]; 2 mg/ml in culture medium) | inhibition of H. pylori biofilm formation ([1]; 10 mg/ml in culture medium) | inhibition of H. pylori biofilm formation ([1]; 20 mg/ml in culture medium) | H. pylori successfully eradicated (H. pylori) | production of ATP in C. cladosporioides [2] | growth of Cladosporium cladosporioides ([2]; cultured with cysteine) | biofilm of C. cladosporioides on surface of silicone block (C. cladosporioides)
1 | N[C@@H](CS)C(=O)O [L-cysteine] | partly | completely | completely |  |  |  | 
2 | CC(=O)N[C@@H](CS)C(=O)O [N-acetylcysteine, reference compound] | partly | completely | completely | 13/20 |  |  | 
3 | N[C@@H](CS)C(=O)O [cysteine] |  |  |  |  | inhibited | completely and statically inhibited | not covered with biofilm
